Laboratory results from the NIST ThermoML archive (doi:10.1021/acs.jced.5b00198).
Values joined by “and” are separate entries in the source; they are usually repeats but may differ in a detail not shown here. Equal entries are not always repeated. Numbers after ± are expanded uncertainties.

Test: mn = molality of the nth substance listed, in mol/kg
Conditions: 101 kPa, Liquid; for viscosity: Capillary tube (Ostwald / Ubbelohde) method; for speed of sound: Frequency=3 MHz, Sing-around technique in a fixed-path interferometer; for mass density: Vibrating tube method

CCCC[N+](CCCC)(CCCC)CCCC.[I-] [tetrabutylammonium iodide] + O
Conditions	mass density, m1 = 0.01 [kg/m3]	mass density, m1 = 0.03 [kg/m3]	speed of sound, m1 = 0.01 [m/s]	speed of sound, m1 = 0.03 [m/s]	viscosity, m1 = 0.01	viscosity, m1 = 0.03
288.15 K	1001.07 ± 4	1002.22 ± 4	1468.9 ± 1.2	1473.6 ± 1.2	1.173 ± 0.015 mPa·s and 1.171 ± 0.015 mPa·s	1.197 ± 0.015 mPa·s and 1.201 ± 0.015 mPa·s and 1.205 ± 0.015 mPa·s
293.15 K	1000.16 ± 4	1001.29 ± 4	1484.9 ± 1.2	1489.1 ± 1.2	1.006 ± 0.013 mPa·s and 1.007 ± 0.013 mPa·s	1.033 ± 0.014 mPa·s and 1.025 ± 0.013 mPa·s and 1.036 ± 0.014 mPa·s
298.15 K	998.972 ± 4	1000.09 ± 4	1498.9 ± 1.2	1502.8 ± 1.2	0.861 ± 0.011 mPa·s and 0.862 ± 0.011 mPa·s	0.883 ± 0.011 mPa·s and 0.882 ± 0.011 mPa·s and 0.884 ± 0.011 mPa·s
303.15 K	997.53 ± 4	998.614 ± 4	1511.1 ± 1.2	1514.5 ± 1.2	0.818 ± 0.01 mPa·s and 0.817 ± 0.01 mPa·s	0.83 ± 0.01 mPa·s and 0.828 ± 0.01 mPa·s and 0.831 ± 0.01 mPa·s
308.15 K	995.952 ± 4	997.021 ± 4	1521.2 ± 1.2	1524.4 ± 1.2	0.731 ± 0.009 mPa·s and 0.732 ± 0.009 mPa·s	0.739 ± 0.009 mPa·s and 0.744 ± 0.009 mPa·s
